This assay deals with T1, recombinant human NAE enzyme (Homo sapiens, UniProt Q8TBC4).
T1 construct: His (N); made in house; host or cells: Sf9 insect cells (baculovirus, Bac-to-Bac)
T1 sequence (Q8TBC4 1-463): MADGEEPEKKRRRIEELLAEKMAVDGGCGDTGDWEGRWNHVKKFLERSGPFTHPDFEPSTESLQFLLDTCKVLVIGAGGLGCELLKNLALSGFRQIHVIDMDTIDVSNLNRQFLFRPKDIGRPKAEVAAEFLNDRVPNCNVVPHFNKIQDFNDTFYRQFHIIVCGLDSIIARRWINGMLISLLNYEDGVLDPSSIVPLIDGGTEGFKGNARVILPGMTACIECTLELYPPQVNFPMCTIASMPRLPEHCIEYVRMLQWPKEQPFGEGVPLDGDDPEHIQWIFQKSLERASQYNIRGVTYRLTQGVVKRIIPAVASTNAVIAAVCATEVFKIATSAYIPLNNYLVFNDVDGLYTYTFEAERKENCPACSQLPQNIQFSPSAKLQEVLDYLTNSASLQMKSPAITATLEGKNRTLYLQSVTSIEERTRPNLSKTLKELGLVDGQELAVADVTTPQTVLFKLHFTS
T1 sequence (Q13564 1-534 partner): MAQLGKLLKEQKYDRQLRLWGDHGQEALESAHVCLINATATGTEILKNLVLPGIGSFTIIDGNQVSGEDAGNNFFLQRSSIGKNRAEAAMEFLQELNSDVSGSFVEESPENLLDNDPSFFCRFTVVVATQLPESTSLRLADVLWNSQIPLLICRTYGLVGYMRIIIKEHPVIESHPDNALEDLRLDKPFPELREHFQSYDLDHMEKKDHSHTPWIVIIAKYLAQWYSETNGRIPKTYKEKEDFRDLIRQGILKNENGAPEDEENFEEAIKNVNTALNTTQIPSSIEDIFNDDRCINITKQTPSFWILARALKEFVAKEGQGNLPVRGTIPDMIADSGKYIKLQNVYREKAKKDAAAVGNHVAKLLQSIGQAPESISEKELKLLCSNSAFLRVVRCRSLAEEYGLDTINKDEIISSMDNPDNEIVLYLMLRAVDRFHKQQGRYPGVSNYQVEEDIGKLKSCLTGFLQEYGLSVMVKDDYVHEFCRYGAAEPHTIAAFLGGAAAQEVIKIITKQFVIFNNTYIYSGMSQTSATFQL
Briefly: Nedd8-Activating Enzyme (NAE) HTRF Assay. Type of assay: biochemical. Particulars: 20 μM ATP. In outline: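 Recombinant human NAE (NAEα/His-NAEβ from Sf9 cells) at 0.20 nM with 20 μM ATP, 0.01 μM Ubc12-GST and 0.075 μM Nedd8-Flag in HEPES pH 7.5, 105 min at 24° C. EDTA stop; Eu-anti-FLAG/APC-anti-GST HTRF read after 1 h.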

Some results are limits rather than exact numbers.

Consider `NS(=O)(=O)OC[C@@H]1C[C@@H](Oc2ncnc3nc(-c4ccnc5cc(Cl)ccc45)[nH]c23)C[C@@H]1O` [Compound I-73, ((1S,2S,4R)-4-{[8-(7-chloroquinolin-4-yl)-7H-purin-6-yl]oxy}-2-hydroxycyclopentyl)methyl sulfamate], for which, for the setting “bound given in nM”, the IC50 is not above 500 nM. In the case of `NS(=O)(=O)OC[C@@H]1C[C@@H](Nc2ncnc3[nH]c(-c4cccc5ccccc45)cc23)C[C@@H]1O` [Compound I-74, ((1S,2S,4R)-2-hydroxy-4-{[6-(1-naphthyl)-7H-pyrrolo[2,3-d]pyrimidin-4-yl]amino}cyclopentyl)methyl sulfamate], the IC50 (bound given in nM) is not above 500 nM. On to `NS(=O)(=O)OC[C@@H]1C[C@@H](O)[C@H](Nc2cc(N[C@H]3CCc4ccccc43)ncn2)C1` [Compound I-76, [(1S,3R,4R)-3-({6-[(1S)-2,3-dihydro-1H-inden-1-ylamino]pyrimidin-4-yl}amino)-4-hydroxycyclopentyl]methyl sulfamate], for which, for the setting “bound given in μM”, the IC50 is more than 10000 nM. `CO[C@H]1c2ccccc2C[C@H]1Oc1cc(O[C@@H]2C[C@@H](COS(N)(=O)=O)[C@@H](O)C2)ncn1` [Compound I-77, {(1S,2S,4R)-2-hydroxy-4-[(6-{[(1S,2R)-1-methoxy-2,3-dihydro-1H-inden-2-yl]oxy}-pyrimidin-4-yl)oxy]cyclopentyl}methyl sulfamate]: the IC50 by setting is: (bound given in nM) more than 500 nM; (bound given in μM) less than 10000 nM. `CO[C@@H]1c2ccccc2C[C@@H]1Oc1cc(O[C@@H]2C[C@@H](COS(N)(=O)=O)[C@@H](O)C2)ncn1` [Compound I-79, {(1S,2S,4R)-2-hydroxy-4-[(6-{[(1R,2S)-1-methoxy-2,3-dihydro-1H-inden-2-yl]oxy}-pyrimidin-4-yl)oxy]cyclopentyl}methyl sulfamate]: the IC50 (bound given in nM) was more than 500 nM and the IC50 (bound given in μM) is less than 10000 nM. Taken in the same sequence, the figures for `NS(=O)(=O)OC[C@@H]1C[C@@H](Oc2ncnc3c2ncn3Cc2ccccc2)C[C@@H]1O` [Compound I-80, {(1S,2S,4R)-4-[(9-benzyl-9H-purin-6-yl)oxy]-2-hydroxycyclopentyl}methyl sulfamate] were more than 500 nM and less than 10000 nM. As to `NS(=O)(=O)OC[C@@H]1C[C@@H](Nc2cc(CCc3ccccc3)ncn2)C[C@@H]1O` [Compound I-81, ((1S,2S,4R)-2-hydroxy-4-{[6-(2-phenylethyl)pyrimidin-4-yl]amino}cyclopentyl)methyl sulfamate], the IC50 is more than 500 nM (bound given in nM) and less than 10000 nM (bound given in μM). For `CO[C@H]1Cc2ccccc2[C@H]1Nc1cc(O[C@@H]2C[C@@H](CNS(N)(=O)=O)[C@@H](O)C2)ncn1` [Compound I-82, N-({(1S,2S,4R)-2-hydroxy-4-[(6-{[(1R,2S)-2-methoxy-2,3-dihydro-1H-inden-1-yl]amino}pyrimidin-4-yl)oxy]cyclopentyl}methyl)sulfamide], under “bound given in nM”, the IC50 is not above 500 nM. Consider `CO[C@H]1Cc2ccccc2[C@H]1Nc1ncnc(O[C@@H]2C[C@@H](COS(N)(=O)=O)[C@@H](O)C2)c1F` [Compound I-83, {(1S,2S,4R)-4-[(5-fluoro-6-{[(1R,2S)-2-methoxy-2,3-dihydro-1H-inden-1-yl]amino}pyrimidin-4-yl)oxy]-2-hydroxycyclopentyl}methyl sulfamate], for which, where the note is “bound given in nM”, the IC50 is not above 500 nM.

Consider `NS(=O)(=O)OC[C@@H]1C[C@@H](Nc2ncnc3nc(-c4cccc5cccnc45)[nH]c23)C[C@@H]1O` [Compound I-84, {(1S,2S,4R)-2-hydroxy-4-[(8-quinolin-8-yl-7H-purin-6-yl)amino]cyclopentyl}methyl sulfamate], for which the IC50 (bound given in nM) was not above 500 nM. Consider `NS(=O)(=O)OC[C@H]1C[C@@H](Nc2cc(CCc3ccccc3)ncn2)[C@H](O)[C@@H]1O` [Compound I-86, ((1R,2R,3S,4R)-2,3-dihydroxy-4-{[6-(2-phenylethyl)pyrimidin-4-yl]amino}cyclopentyl)-methyl sulfamate], for which the IC50 is more than 500 nM (bound given in nM) and less than 10000 nM (bound given in μM).

With `NS(=O)(=O)OC[C@@H]1C[C@@H](Oc2ncnc3[nH]c(-c4cccc5ccccc45)nc23)C[C@@H]1O` [Compound I-87, ((1S,2S,4R)-2-hydroxy-4-{[8-(1-naphthyl)-9H-purin-6-yl]oxy}cyclopentyl)methyl sulfamate], the IC50 (bound given in nM) is not above 500 nM. On to `NS(=O)(=O)OC[C@@H]1C[C@@H](Nc2ncnc3[nH]c(Cc4ccccc4)nc23)C[C@@H]1O` [Compound I-88, {(1S,2S,4R)-4-[(8-benzyl-9H-purin-6-yl)amino]-2-hydroxycyclopentyl}methyl sulfamate], for which the IC50 (bound given in nM) is not above 500 nM. As for `NS(=O)(=O)OC[C@@H]1C[C@@H](Oc2cc(OCc3ccc(Cl)cc3)ncn2)C[C@@H]1O` [Compound I-89, [(1S,2S,4R)-4-({6-[(4-chlorobenzyl)oxy]pyrimidin-4-yl}oxy)-2-hydroxycyclopentyl]methyl sulfamate], the IC50 (bound given in μM) was more than 10000 nM. Turning to `NS(=O)(=O)OC[C@@H]1C[C@@H](Nc2ncnc3oc(-c4ccccc4)nc23)C[C@@H]1O` [Compound I-90, {(1S,2S,4R)-2-hydroxy-4-[(2-phenyl[1,3]oxazolo[5,4-d]pyrimidin-7-yl)amino]cyclopentyl}methyl sulfamate], the IC50 (bound given in nM) is not above 500 nM. Consider `NS(=O)(=O)OC[C@H]1C[C@@H](Nc2cc(N[C@H]3CCC[C@@H]3OCc3ccccc3)ncn2)[C@H](O)[C@@H]1O` [Compound I-92, {(1R,2R,3S,4R)-4-[(6-{[(1S,2S)-2-(benzyloxy)cyclopentyl]amino}pyrimidin-4-yl)amino]-2,3-dihydroxycyclopentyl}methyl sulfamate], for which the IC50 is more than 500 nM (bound given in nM) and less than 10000 nM (bound given in μM). With `COc1cccc(OC)c1-c1nc2c(N[C@@H]3C[C@@H](COS(N)(=O)=O)[C@@H](O)C3)ncnc2[nH]1` [Compound I-93, ((1S,2S,4R)-4-{[8-(2,6-dimethoxyphenyl)-9H-purin-6-yl]amino}-2-hydroxycyclopentyl)methyl sulfamate], the IC50 (bound given in nM) was not above 500 nM.

`NS(=O)(=O)OC[C@@H]1C[C@@H](Oc2ccnc(N[C@H]3CCc4ccccc43)c2)C[C@@H]1O` [Compound I-94, [(1S,2S,4R)-4-({2-[(1S)-2,3-dihydro-1H-inden-1-ylamino]pyridin-4-yl}oxy)-2-hydroxycyclopentyl]methyl sulfamate]: the IC50 runs as follows: (bound given in nM) more than 500 nM; (bound given in μM) less than 10000 nM. Taken in the same sequence, the figures for `CO[C@H]1Cc2ccccc2[C@H]1Oc1cc(O[C@@H]2C[C@@H](COS(N)(=O)=O)[C@@H](O)C2)ncn1` [Compound I-96, {(1S,2S,4R)-2-hydroxy-4-[(6-{[(1R,2S)-2-methoxy-2,3-dihydro-1H-inden-1-yl]oxy}-pyrimidin-4-yl)oxy]cyclopentyl}methyl sulfamate] were more than 500 nM and less than 10000 nM. In the case of `NS(=O)(=O)OC[C@@H]1C[C@@H](Oc2ccncn2)C[C@@H]1O` [Compound I-97, [(1S,2S,4R)-2-hydroxy-4-(pyrimidin-4-yloxy)cyclopentyl]methyl sulfamate], the IC50 (bound given in μM) is more than 10000 nM. Turning to `CO[C@@H]1Cc2ccccc2[C@@H]1Oc1cc(O[C@@H]2C[C@@H](COS(N)(=O)=O)[C@@H](O)C2)ncn1` [Compound I-98, {(1S,2S,4R)-2-hydroxy-4-[(6-{[(1S,2R)-2-methoxy-2,3-dihydro-1H-inden-1-yl]oxy}-pyrimidin-4-yl)oxy]cyclopentyl}methyl sulfamate], the IC50 reads like this: (bound given in nM) more than 500 nM; (bound given in μM) less than 10000 nM.

`COc1cccc(-c2nc3c(N[C@@H]4C[C@@H](COS(N)(=O)=O)[C@@H](O)C4)ncnc3[nH]2)c1` [Compound I-99, ((1S,2S,4R)-2-hydroxy-4-{[8-(3-methoxyphenyl)-9H-purin-6-yl]amino}cyclopentyl)methyl sulfamate]: under “bound given in nM”, the IC50 is not above 500 nM. On the same count and under the same terms, next, `CC1(C)Cc2cccc(-c3nc4c(N[C@@H]5C[C@@H](COS(N)(=O)=O)[C@@H](O)C5)ncnc4[nH]3)c2O1` [Compound I-100, ((1S,2S,4R)-4-{[8-(2,2-dimethyl-2,3-dihydro-1-benzofuran-7-yl)-9H-purin-6-yl]amino}-2-hydroxycyclopentyl)methyl sulfamate]: not above 500 nM; `Cc1cccc(S(=O)(=O)c2nc3c(O[C@@H]4C[C@@H](COS(N)(=O)=O)[C@@H](O)C4)ncnc3[nH]2)c1` [Compound I-101, [(1S,2S,4R)-2-hydroxy-4-({8-[(3-methylphenyl)sulfonyl]-9H-purin-6-yl}oxy)cyclopentyl]methyl sulfamate]: not above 500 nM.

The values above are taken from patent US9718788B2, “Heteroaryl compounds useful as inhibitors of E1 activating enzymes” (MILLENNIUM PHARMACEUTICALS, INC., priority 2006, dated 2017).
